Results taken from PMC4391943, “Novel Epigallocatechin-3-Gallate (EGCG) Derivative as a New Therapeutic Strategy for Reducing Neuropathic Pain after Chronic Constriction Nerve Injury in Mice” (PLoS ONE, 2015).

Key:
NMDAR2B [1] = experiment: Western blot of NMDAR2B in the synaptic plasma membrane fraction of the dorsal horn; type: in vivo, mice; details: 50 mg/Kg, 56 dpi
Protocol: Subcellular fractionation was obtained by differential centrifugation as described elsewhere. Briefly, tissue was homogenized in lysis buffer (10 mM Tris-HCl pH 7.5, 1 mM EDTA, 1 mM Na3VO4, 0.25 M sucrose, 2 mM PMSF, 1 μg/μL aprotinin, 1 μg/μL leupeptin, 2 mM sodium orthovanadate). The homogenate was centrifuged at 2,000 × g for 10 min at 4°C to separate the nuclei fraction (P1). The P1 was resuspended in lysis buffer. The resulting supernatant was centrifuged at 10,000×g for 15 min at 4°C to obtain a crude membrane fraction (P2). The P2 was resuspended and incubated in the lysis buffer containing 0.5% Triton X-100 for 15 min, and then centrifuged at 25,000 × g for 20 min to obtain the synaptosomal membrane fraction (P3). Finally, the P3 was resuspended in lysis buffer and centrifuged on a discontinuous sucrose gradient (0.8 M, 1 M and 1.2 M) at 150,000×g for 2 h. Synaptic plasma membrane (SPM) was collected from the 1:1.2 M interface and resuspended in 50 mM HEPES, 2 mM EDTA, 1 mM PMSF, 10 μg/ml aprotinin, 1 μg/ml leupeptin and 2 mM sodium orthovanadate.
(§1) Western blotting was performed as previously described. The following primary antibodies were used: anti-FASN (1:1000, BD Bioscience, San Jose, CA); anti-TNF-α, anti-IL-1β, anti-IL-6 and anti-NFκB (all 1:500, Santa Cruz Biotechnology, Santa Cruz, CA); anti-phosphoNMDAR2B (Tyr1472) (1:2000, Affinity Bioreagents, Golden, CO) and anti-NMDAR2B (1:1000, Chemicon, Temecula, CA). Loading control was performed by reprobing the membranes with anti-actin (1:10,000; MP Biochemicals, Aurora, OH), anti-NeuN (1:1,000; Chemicon) or anti-N-cadherin (1:1000, BD Bioscience). Membranes were incubated with the corresponding horseradish peroxidase-conjugated antibody (1:2,000; Promega, Madison, WI). Immunoreactive bands were visualized using the Western Blotting Luminol Reagent and quantified by a computer-assisted densitometer (Gel-Pro Analyzer, version 4, Media Cybernetics).

NMDAR2B [2] = experiment: Western blot of phospho-NMDAR2B and total NMDAR2B in the dorsal horn of the spinal cord; type: in vivo, mice; details: 50 mg/Kg, 56 dpi
Protocol: (§2) Mice (n = 5 per group) were sacrificed with sodium pentobarbital (90 mg/kg; i.p.) at 14 and 56 dpi and spinal cord segments distal to T12 vertebra were quickly removed and frozen. For total protein extraction, the dorsal horn of the spinal cord was homogenized in modified RIPA buffer (50 mM Tris–HCl pH 7.5, 1% Triton X-100, 0.5% sodium deoxycholate, 0.2% SDS, 100 mM NaCl, 1 mM EDTA, 2 mM PMSF, 1 μg/μL aprotinin, 1 μg/μL leupeptin and 2 mM sodium orthovanadate).
as §1

[3] = molecular target: T1, fatty acid synthase (FASN) (Mus musculus, UniProt P19096); experiment: Fatty acid synthase activity in the dorsal horn of the spinal cord of treated CCI-mice (NADPH oxidation, A340); type: in vivo; details: 50 mg/Kg, n = 5; for FASN activity, % of vehicle group: 14 dpi
T1 construct: The dorsal horn of the spinal cord tissue was homogenized in lysis buffer; from tissue; host or cells: dorsal horn of the spinal cord of female Balb-c mice (CCI model)
T1 sequence (P19096 whole entry): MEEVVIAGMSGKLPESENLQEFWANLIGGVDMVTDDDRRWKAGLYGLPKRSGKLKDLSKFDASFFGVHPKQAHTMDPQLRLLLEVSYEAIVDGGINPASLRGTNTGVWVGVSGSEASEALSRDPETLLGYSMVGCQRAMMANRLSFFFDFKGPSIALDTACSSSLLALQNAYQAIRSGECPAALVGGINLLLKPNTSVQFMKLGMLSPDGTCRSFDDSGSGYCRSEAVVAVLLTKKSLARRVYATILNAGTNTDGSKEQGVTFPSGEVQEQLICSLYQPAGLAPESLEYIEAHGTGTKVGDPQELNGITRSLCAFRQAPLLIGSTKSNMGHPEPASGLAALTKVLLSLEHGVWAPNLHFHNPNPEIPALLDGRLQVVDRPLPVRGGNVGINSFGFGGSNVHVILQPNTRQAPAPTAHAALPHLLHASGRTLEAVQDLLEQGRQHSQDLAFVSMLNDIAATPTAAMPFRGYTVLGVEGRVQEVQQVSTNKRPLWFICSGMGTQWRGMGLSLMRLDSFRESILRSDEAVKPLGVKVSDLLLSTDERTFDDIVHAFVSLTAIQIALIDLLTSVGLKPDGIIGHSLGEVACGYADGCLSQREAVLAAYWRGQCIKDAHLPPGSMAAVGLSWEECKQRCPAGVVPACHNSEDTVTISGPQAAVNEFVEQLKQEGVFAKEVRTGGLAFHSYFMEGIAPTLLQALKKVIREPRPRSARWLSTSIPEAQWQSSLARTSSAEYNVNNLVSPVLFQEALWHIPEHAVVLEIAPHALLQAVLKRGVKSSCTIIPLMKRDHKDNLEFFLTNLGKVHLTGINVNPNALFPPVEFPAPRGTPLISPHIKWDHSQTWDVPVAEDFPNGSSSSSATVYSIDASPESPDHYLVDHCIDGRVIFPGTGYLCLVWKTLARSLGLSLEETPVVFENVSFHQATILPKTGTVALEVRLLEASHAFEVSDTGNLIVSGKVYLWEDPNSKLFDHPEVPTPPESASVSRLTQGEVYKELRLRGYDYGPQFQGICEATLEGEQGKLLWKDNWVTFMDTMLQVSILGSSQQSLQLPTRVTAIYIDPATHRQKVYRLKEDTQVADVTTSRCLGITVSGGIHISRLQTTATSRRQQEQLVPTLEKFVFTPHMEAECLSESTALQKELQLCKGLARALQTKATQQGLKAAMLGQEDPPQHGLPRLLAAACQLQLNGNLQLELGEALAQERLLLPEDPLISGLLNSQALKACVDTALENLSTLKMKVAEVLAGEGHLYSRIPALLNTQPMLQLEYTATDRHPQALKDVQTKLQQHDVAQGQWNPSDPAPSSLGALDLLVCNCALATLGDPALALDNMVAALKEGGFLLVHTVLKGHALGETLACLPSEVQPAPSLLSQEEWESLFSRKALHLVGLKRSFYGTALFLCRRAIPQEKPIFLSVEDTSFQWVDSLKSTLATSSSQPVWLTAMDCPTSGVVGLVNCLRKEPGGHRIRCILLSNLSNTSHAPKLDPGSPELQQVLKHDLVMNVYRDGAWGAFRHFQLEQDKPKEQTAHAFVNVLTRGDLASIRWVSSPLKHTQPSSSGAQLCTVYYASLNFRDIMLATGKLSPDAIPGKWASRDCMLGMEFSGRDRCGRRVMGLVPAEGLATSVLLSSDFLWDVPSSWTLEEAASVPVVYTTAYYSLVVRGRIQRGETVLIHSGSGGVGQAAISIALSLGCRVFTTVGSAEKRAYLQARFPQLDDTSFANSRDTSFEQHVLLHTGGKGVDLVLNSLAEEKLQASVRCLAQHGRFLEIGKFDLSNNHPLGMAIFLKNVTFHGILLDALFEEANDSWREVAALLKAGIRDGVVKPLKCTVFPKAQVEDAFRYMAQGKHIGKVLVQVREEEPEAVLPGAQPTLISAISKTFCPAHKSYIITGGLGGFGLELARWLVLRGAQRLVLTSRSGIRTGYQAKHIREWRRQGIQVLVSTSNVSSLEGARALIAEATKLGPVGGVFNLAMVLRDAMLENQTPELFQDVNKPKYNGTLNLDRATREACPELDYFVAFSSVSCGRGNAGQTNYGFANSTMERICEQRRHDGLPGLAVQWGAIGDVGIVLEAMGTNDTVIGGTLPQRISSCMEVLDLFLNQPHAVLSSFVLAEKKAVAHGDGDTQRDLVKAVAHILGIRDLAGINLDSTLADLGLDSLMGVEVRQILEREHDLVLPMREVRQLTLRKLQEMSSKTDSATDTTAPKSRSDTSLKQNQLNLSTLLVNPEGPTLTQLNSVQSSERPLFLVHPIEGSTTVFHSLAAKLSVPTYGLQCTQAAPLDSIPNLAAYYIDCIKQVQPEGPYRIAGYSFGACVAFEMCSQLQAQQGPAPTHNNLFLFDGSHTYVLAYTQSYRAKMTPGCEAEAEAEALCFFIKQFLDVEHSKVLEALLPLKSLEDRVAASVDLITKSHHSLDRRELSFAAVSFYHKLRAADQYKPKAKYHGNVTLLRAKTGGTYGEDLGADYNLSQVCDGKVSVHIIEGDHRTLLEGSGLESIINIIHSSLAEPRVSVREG
Protocol: For dose response studies, EGCG and the two synthetic EGCG derivatives compound 23 and compound 30 were administered by intra-peritoneal injection at 10, 30, 50 and 100 mg/Kg (n = 5 mice/compound/dose), 30 minutes after the CCI. To analyze the time-dependent effect EGCG and the two synthetic EGCG derivatives compound 23 and compound 30 were administered by intra-peritoneal injection at 50 mg/Kg (n = 15 mice/compound), 30 minutes after the CCI. Another set of animals were used to study the effect of 50 mg/kg of EGCG and the two synthetic EGCG derivatives compound 23 and compound 30 at 14 dpi (n = 15 mice/compound). In all cases, the administration was daily repeated during the first week. All compounds were dissolved in DMSO/saline solution (1:9; v/v), used as vehicle group.
The fatty acid synthase (FASN) activity was assayed in particle-free supernatants by recording spectrophotometrically at 37°C (Lambda Bio 20, Perkin Elmer Boston, MA, USA, EUA) and measuring the decrease of A340 nm due to oxidation of NADPH as previously described. Briefly, mice (n = 5 per group) were sacrificed with sodium pentobarbital (90 mg/kg; i.p.) at 14 and 56 dpi. Spinal cord segments distal to T12 vertebra were quickly removed and snap frozen. The dorsal horn of the spinal cord tissue was homogenized in lysis buffer (250mM sucrose, 20 mM HEPES pH 7.6, 2 mM MgCl2, 1 mM DTT, 1 mM EDTA, 50 mM NaF, 2 mM phenylmethylsulfonyl fluoride (PMSF), 1 μg/μL aprotinin, 1 μg/μL leupeptin, 2 mM sodium orthovanadate). Homogenized samples were centrifuged at 3,500 x g for 10 minutes, and then supernatant was collected and centrifuged at 100,000 x g for 30 minutes to obtain supernatants particle-free. The protein concentrations were determined using the Dc protein assay kit. A 90 μg amount of protein was used for the reaction. A pre-incubation during 15 minutes at 37°C in 0.2 M of potassium phosphate buffer, pH = 7.0 was kept for temperature equilibration. Then, samples were added to the reaction mixture (200 mM potassium phosphate buffer, pH 7.0; 1 mM EDTA; 1 mM dithiothreitol, 30 μM Acetyl-CoA and 0.24 mM NADPH) and then were monitored at 340 nm for 3 minutes to measure background NADPH oxidation. After the addition of 50 μM of malonyl-CoA, the reaction was assayed for 10 minutes to determine FASN-dependent oxidation of NADPH. Rates were corrected with the background rate of NADPH oxidation.

[4] = Serum stability study, mouse serum; type: in vitro ADME; details: mouse (Balb/c) serum, 37°C, 75% serum, 0.5 mM compound; for half-life at 0.5 mM: mouse serum (75% final serum content), read-out: half-life (t1/2) (converted)
Protocol: Peptide stabilities were assayed in diluted serum as previously described. Human serum (Sigma, S7023) or mouse serum (Europa Bioproducts, EQSM-0100) were incubated at 37°C for 10 min. The assay was initiated upon the addition of the test compound solved in PBS to the serum (75% final serum content) for a final compound concentration of 0.5 mM. Then, 500 µL aliquots of the incubations were taken for the following time points: 0, 15, 30, 60, 120 and 240 min. The aliquots were mixed with 750 µL of cold acetonitrile (ACN) and incubated at 4°C for 10 min to precipitate serum proteins. The supernatant was collected for each sample after centrifugation at 39,000 g for 10 min and were immediately analyzed by high performance liquid chromatography-mass spectrometry (HPLC-MS).

FASN = experiment: Western blot of FASN protein levels in the dorsal horn of the spinal cord; type: in vivo, mice; details: 50 mg/Kg, 14 and 56 dpi
Protocol: as §2, §1

## O=C(Oc1cccc2c(OC(=O)c3cc(O)c(O)c(O)c3)cccc12)c1cc(O)c(O)c(O)c1 [Compound 23, 1,5-Bis [(3,4,5-trihydroxybenzoyl)oxy] naphthalene]
NMDAR2B [1]
  protein levels of NMDAR2B in the synaptic plasma membrane (SPM): did not result in changes
NMDAR2B [2]
  phospho-levels of NMDAR2B compared to vehicle group: did not induce variations
[3]
  FASN activity, % of vehicle group: No differences
[4]
  half-life at 0.5 mM: 18 min
FASN
  effect on FASN protein levels: no effect

## epigallocatechin-3-gallate [EGCG]
NMDAR2B [1]
  protein levels of NMDAR2B in the synaptic plasma membrane (SPM): did not result in changes
NMDAR2B [2]
  phospho-levels of NMDAR2B compared to vehicle group: did not induce variations
[3]
  FASN activity, % of vehicle group: 57±8 % of vehicle group
[4]
  half-life (t1/2): < 0,1 h
FASN
  effect on FASN protein levels: no effect

## O=C(Oc1ccc(-c2ccc(OC(=O)c3cc(O)c(O)c(O)c3)cc2)cc1)c1cc(O)c(O)c(O)c1 [Compound 30, 4,4′-Bis [(3,4,5-trihydroxybenzoyl)oxy]-1,1′-biphenyl]
NMDAR2B [1]
  protein levels of NMDAR2B in the synaptic plasma membrane (SPM): specific decrease
NMDAR2B [2]
  phospho-levels of NMDAR2B compared to vehicle group: specific decrease
[3]
  FASN activity, % of vehicle group: 61±8 % of vehicle group
[3]; 56 dpi
  reduction of FASN activity: 32±9 % of vehicle
[4]
  half-life at 0.5 mM: 24 min
FASN
  effect on FASN protein levels: no effect
